Patent US12576135B2, “Compositions and methods for anti-TnMUC1 gold CAR t-cells” (Chimera Bioengineering, Inc., priority 2021, dated 2026)

Tested on: PI3K
Assay: not given
Conditions: cited from earlier work

| Compound | IC50 [nM] |
| --- | --- |
| COc1ccc(-c2ccc3c(N4CCOC[C@@H]4C)nc(N4CCOC[C@@H]4C)nc3n2)cc1CO [AZD8055] | 3590 |
| COc1ccc(-c2ccc3c(N4CCOCC4)nc(N4C[C@@H](C)O[C@@H](C)C4)nc3n2)cc1CO [KU-0063794] | > 10000 |
| CCC(=O)N1CCN(c2ccc(-n3c(=O)ccc4cnc5ccc(-c6cnc7ccccc7c6)cc5c43)cc2C(F)(F)F)CC1 [Torin 1] | 250 |
| Nc1ccc(-c2ccc3ncc4ccc(=O)n(-c5cccc(C(F)(F)F)c5)c4c3c2)cn1 [Torin 2] | 4.68 |
| CNC(=O)Nc1ccc(-c2nc(N3CC4CCC(C3)O4)c3cnn(C4CCC5(CC4)OCCO5)c3n2)cc1 [WYE-125132] | 1180 |

Tested on: primary T-cells
Assay: Rapamycin inhibition of Gold controlled nano-luciferase in anti-DLL3 CAR primary T-cells mixed with SHP-77 cells
Assay type: cell-based
Conditions: Concurrent Rx and Delay Rx; 24, 48, 72 hours
Source text: A bicistronic vector with an anti-DLL3-CAR and nano-luceiferase under the control of an IFNg Gold element is made using the methods and materials described above. This bicistronic vector is transduced into primary T-cells, and transduced T-cells are obtained. When the transduced T-cells are mixed with SHP-77 cells that display the DLL3 antigen, the primary T-cells are activated and nano-luciferase is expressed.
The ability of rapamycin to inhibit the expression of nano-luciferase following activation of the primary T-cells was tested. Primary T-cells transduced with the bicistronic vector encoding the anti-DLL3 CAR and nano-luciferase were mixed with SHP-77 cells and then three treatment regimens were used. No rapamycin (NoRx), rapamycin added concurrently with the SHP-77 cells (Concurrent Rx), or rapamycin added 24 hours after SHP-77 cells was added (Delay Rx). New media was mixed with the cells every 24 hours. If the cells had received rapamycin in the media in the earlier time period, rapamycin was included with the media at subsequent media changes.
FIG. 22 normalizes the nano-luciferase activity to that of the NoRx sample. Levels of nano-luciferase were measured at 24 hours, 48 hours and 72 hours post mixing with SHP-77 cells.

| Compound | expression of nano-luciferase normalized to NoRx |
| --- | --- |
| CO[C@H]1C[C@@H]2CC[C@@H](C)[C@@](O)(O2)C(=O)C(=O)N2CCCC[C@H]2C(=O)O[C@H]([C@H](C)C[C@@H]2CC[C@@H](O)[C@H](OC)C2)CC(=O)[C@H](C)/C=C(\C)[C@@H](O)[C@@H](OC)C(=O)[C@H](C)C[C@H](C)/C=C/C=C/C=C/1C [Rapamycin/sirolimus] | reduced expression of nano-luciferase |

Target: mTORC1 (Homo sapiens, UniProt P42345)
Assay: not given
Conditions: cited from earlier work

| Compound | IC50 [nM] |
| --- | --- |
| CO[C@H]1C[C@@H]2CC[C@@H](C)[C@@](O)(O2)C(=O)C(=O)N2CCCC[C@H]2C(=O)O[C@H]([C@H](C)C[C@@H]2CC[C@@H](OCCO)[C@H](OC)C2)CC(=O)[C@H](C)/C=C(\C)[C@@H](O)[C@@H](OC)C(=O)[C@H](C)C[C@H](C)/C=C/C=C/C=C/1C [Everolimus] | 1.8 to 2.6 |
| CNC(=O)Nc1ccc(-c2nc(N3CC4CCC(C3)O4)c3cnn(C4CCC5(CC4)OCCO5)c3n2)cc1 [WYE-125132] | 0.19 |
